Patent publication US12275715B2, “Pyridin-2(1H)-one quinolinone derivatives as mutant-isocitrate dehydrogenase inhibitors” (FORMA Therapeutics, Inc., priority 2014, dated 2025)
pIC50: −log10 of the molar value.

What was measured:
[1] = system: HCT116 isogenic IDH1-R132H mutant cells; assay: Cellular 2-HG assay using HCT116 mutant IDH1 cells (R132H); type: cell-based; settings: Homo sapiens, HCT-116; cellular 2-HG inhibition, 24 hours, RapidFire mass spectrometry; read-out: HCT116 IDH1 R132H Range
Method: (§1) HCT116 isogenic IDH1-R132H and IDH1-R132C mutant cells were cultured in growth media (McCoy's 5A, 10% fetal bovine serum, 1× antibiotic-antimycotic solution and 0.3 mg/mL G418) in 5% CO2 in an incubator at 37° C. To prepare the assay, cells were trypsinized and resuspended in assay media (McCoy's 5A with no L-glutamine, 10% fetal bovine serum, 1× antibiotic-antimycotic solution and 0.3 mg/mL G418). An aliquot of 10,000 cells/100 μL was transferred to each well of a clear 96-well tissue culture plate. The cells were incubated in 5% CO2 at 37° C. in an incubator overnight to allow for proper cell attachment. An aliquot of 50 μL of compound containing assay media were then added to each well and the assay plate was kept in 5% CO2 at 37° C. in an incubator for 24 hours. The media was then removed from each well and 150 μL of a methanol/water mixture (80/20 v/v) was added to each well. The plates were kept at −80° C. freezer overnight to allow for complete cell lysis. An aliquot of 125 μL of extracted supernatant was analyzed by RapidFire high-throughout-mass spectrometry (Agilent) to determine the cellular 2-HG level. The IC50 of a given compound was calculated by fitting the dose response curve of cellular 2-HG inhibition at a given concentration with the four parameter logistic equation

[2] = system: HCT116 isogenic IDH1-R132C mutant cells; assay: Cellular 2-HG assay using HCT116 mutant IDH1 cells (R132C); type: cell-based; settings: Homo sapiens, HCT-116; cellular 2-HG inhibition, 24 hours, RapidFire mass spectrometry; read-out: HCT116 IDH1 R132C Range
Method: as §1

[3] = target: IDH1-R132H recombinant protein (Homo sapiens, UniProt O75874, R132H); assay: IDH1-R132H enzymatic assay (NADPH consumption, diaphorase/resazurin readout); type: biochemical; settings: read-out: Enzyme IDH1 R132H Range
Method: (§2) Assays were performed in a 384-well black plate. […] After the plate was centrifuged briefly, an aliquot of 10 μL of 2 mM α-ketoglutarate and 20 μM NADPH solution prepared in assay buffer was then added to each well and the reaction was maintained at 25° C. for 45 minutes. An aliquot of 10 μL of diaphorase solution (0.15 U/mL diaphorase and 30 μM Resazurin in assay buffer) was added to each well. […] The IC50 of a given compound was calculated by fitting the dose response curve of inhibition of NADPH consumption at a given concentration with the four parameter logistic equation.

[4] = target: IDH1-R132C recombinant protein (Homo sapiens, UniProt O75874, R132C); assay: IDH1-R132C enzymatic assay (NADPH consumption, diaphorase/resazurin readout); type: biochemical; settings: read-out: Enzyme IDH1 R132C Range
Method: as §2

Chain of IDH1-R132C recombinant protein (O75874 whole entry R132C): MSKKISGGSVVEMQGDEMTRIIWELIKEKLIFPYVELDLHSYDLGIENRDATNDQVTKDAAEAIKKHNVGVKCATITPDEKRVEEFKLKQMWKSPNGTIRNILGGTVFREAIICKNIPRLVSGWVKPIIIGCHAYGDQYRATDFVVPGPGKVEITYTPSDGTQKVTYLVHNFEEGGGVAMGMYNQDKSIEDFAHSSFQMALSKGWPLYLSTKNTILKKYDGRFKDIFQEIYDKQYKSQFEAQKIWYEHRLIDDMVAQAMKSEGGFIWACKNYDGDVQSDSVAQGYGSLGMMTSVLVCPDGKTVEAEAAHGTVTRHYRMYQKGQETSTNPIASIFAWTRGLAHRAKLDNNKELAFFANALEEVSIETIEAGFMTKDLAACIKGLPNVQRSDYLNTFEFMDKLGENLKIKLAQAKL
Chain of IDH1-R132H recombinant protein (O75874 whole entry R132H): as the sequence (O75874 whole entry R132C) above, with C132H counted along it

| SMILES | pIC50 [1] | pIC50 [2] | pIC50 [3] | pIC50 [4] |
| --- | --- | --- | --- | --- |
| C[C@H](Nc1ccc(C#N)n(C)c1=O)c1cc2cc(Cl)c(OCC3CC3)cc2[nH]c1=O [Compound I-27, 5-{[(1S)-1-[6-chloro-7-(cyclopropylmethoxy)-2-oxo-1,2-dihydroquinolin-3-yl]ethyl]amino}-1-methyl-6-oxo-1,6-dihydropyridine-2-carbonitrile] | > 8.00 | 7.00 to 8.00 | – | – |
| CC(Nc1ccc(C#N)n(C)c1=O)c1cc2cc(Cl)c(OCc3ccccn3)cc2[nH]c1=O (centres unmarked) [Compound I-25, 5-({1-[6-chloro-2-oxo-7-(pyridin-2-ylmethoxy)-1,2-dihydroquinolin-3-yl]ethyl}amino)-1-methyl-6-oxo-1,6-dihydropyridine-2-carbonitrile] | > 8.00 | > 8.00 | – | – |
| C[C@H](Nc1ccc(C#N)n(C)c1=O)c1cc2cc(Cl)cnc2[nH]c1=O [Compound I-31, 5-{[(1S)-1-(6-chloro-2-oxo-1,2-dihydro-1,8-naphthyridin-3-yl)ethyl]amino}-1-methyl-6-oxo-1,6-dihydropyridine-2-carbonitrile] | 7.00 to 8.00 | < 6.00 | 6.00 to 7.00 | 5.00 to 6.00 |
| CC(Nc1ccc(C#N)n(C)c1=O)c1cc2cc(Cl)c(F)cc2[nH]c1=O (centres unmarked) [Compound I-19, 5-{[1-(6-chloro-7-fluoro-2-oxo-1,2-dihydroquinolin-3-yl)ethyl]amino}-1-methyl-6-oxo-1,6-dihydropyridine-2-carbonitrile] | 7.00 to 8.00 | 7.00 to 8.00 | 7.00 to 8.00 | 6.00 to 7.00 |
| C[C@@H](Nc1ccc(C#N)n(C)c1=O)c1nc2cc(Cl)ccc2[nH]c1=O [Compound I-32, 5-{[(1R)-1-(7-chloro-3-oxo-3,4-dihydroquinoxalin-2-yl)ethyl]amino}-1-methyl-6-oxo-1,6-dihydropyridine-2-carbonitrile] | < 6.00 | < 6.00 | 6.00 to 7.00 | 5.00 to 6.00 |
| CC(C)Oc1cc2[nH]c(=O)c([C@H](C)Nc3ccc(C#N)n(C)c3=O)cc2cc1Cl [Compound I-29, 5-{[(1S)-1-[6-chloro-2-oxo-7-(propan-2-yloxy)-1,2-dihydroquinolin-3-yl]ethyl]amino}-1-methyl-6-oxo-1,6-dihydropyridine-2-carbonitrile] | 7.00 to 8.00 | 7.00 to 8.00 | – | – |
| COc1cc2[nH]c(=O)c(C(C)Nc3ccc(C#N)n(C)c3=O)cc2cc1Cl (centres unmarked) [Compound I-22, 5-{[1-(6-chloro-7-methoxy-2-oxo-1,2-dihydroquinolin-3-yl)ethyl]amino}-1-methyl-6-oxo-1,6-dihydropyridine-2-carbonitrile] | > 8.00 | 7.00 to 8.00 | – | – |
| C[C@H](Nc1ccc(C#N)n(C)c1=O)c1nc2cc(Cl)ccc2[nH]c1=O [Compound I-33, 5-{[(1S)-1-(7-chloro-3-oxo-3,4-dihydroquinoxalin-2-yl)ethyl]amino}-1-methyl-6-oxo-1,6-dihydropyridine-2-carbonitrile] | 6.00 to 7.00 | < 6.00 | 6.00 to 7.00 | 5.00 to 6.00 |
| O=c1[nH]c2ccc(Cl)cc2cc1CNc1ccc(Br)[nH]c1=O [Compound I-7, 3-{[(6-bromo-2-oxo-1,2-dihydropyridin-3-yl)amino]methyl}-6-chloro-1,2-dihydroquinolin-2-one] | – | – | < 6.00 | – |
| O=c1[nH]c2ccc(Cl)cc2cc1CNc1ccc(C(F)(F)F)[nH]c1=O [Compound I-8, 6-chloro-3-({[2-oxo-6-(trifluoromethyl)-1,2-dihydropyridin-3-yl]amino}methyl)-1,2-dihydroquinolin-2-one] | – | – | < 6.00 | – |
| COC(=O)c1c[nH]c(=O)c(NCc2cc3cc(Cl)ccc3[nH]c2=O)c1 [Compound I-10, methyl 5-{[(6-chloro-2-oxo-1,2-dihydroquinolin-3-yl)methyl]amino}-6-oxo-1,6-dihydropyridine-3-carboxylate] | – | – | < 6.00 | – |
| C[C@H](Nc1ccc(C#N)n(C)c1=O)c1cc2cc(Cl)cc(F)c2[nH]c1=O [Compound I-30, 5-{[(1S)-1-(6-chloro-8-fluoro-2-oxo-1,2-dihydroquinolin-3-yl)ethyl]amino}-1-methyl-6-oxo-1,6-dihydropyridine-2-carbonitrile] | 7.00 to 8.00 | 6.00 to 7.00 | 7.00 to 8.00 | 6.00 to 7.00 |
| C[C@H](Nc1ccc(C#N)n(C)c1=O)c1cc2cc(Cl)ccc2[nH]c1=O [Compound I-13, (S)-5-((1-(6-chloro-2-oxo-1,2-dihydroquinolin-3-yl)ethyl)amino)-1-methyl-6-oxo-1,6-dihydropyridine-2-carbonitrile] | 7.00 to 8.00 | 7.00 to 8.00 | – | – |
| Cn1cccc(NCc2cc3cc(Cl)c(OCc4ccccn4)cc3[nH]c2=O)c1=O [Compound I-12, 6-chloro-3-{[(1-methyl-2-oxo-1,2-dihydropyridin-3-yl)amino]methyl}-7-(pyridin-2-ylmethoxy)-1,2-dihydroquinolin-2-one] | – | – | 7.00 to 8.00 | < 5.00 |
| C[C@H](Nc1ncc(C#N)n(C)c1=O)c1cc2cc(Cl)ccc2[nH]c1=O [Compound I-17, 5-{[(1S)-1-(6-chloro-2-oxo-1,2-dihydroquinolin-3-yl)ethyl]amino}-1-methyl-6-oxo-1,6-dihydropyrazine-2-carbonitrile] | 7.00 to 8.00 | 6.00 to 7.00 | 7.00 to 8.00 | 6.00 to 7.00 |
| C[C@H](Nc1ccc(C#N)n(C)c1=O)c1cc2cc(Cl)c(OCc3ccccn3)cc2[nH]c1=O [Compound I-23, 5-{[(1S)-1-[6-chloro-2-oxo-7-(pyridin-2-ylmethoxy)-1,2-dihydroquinolin-3-yl]ethyl]amino}-1-methyl-6-oxo-1,6-dihydropyridine-2-carbonitrile] | > 8.00 | > 8.00 | – | – |
| C[C@@H](Nc1ccc(C#N)n(C)c1=O)c1cc2cc(Cl)c(F)cc2[nH]c1=O [Compound I-18, 5-{[(1R)-1-(6-chloro-7-fluoro-2-oxo-1,2-dihydroquinolin-3-yl)ethyl]amino}-1-methyl-6-oxo-1,6-dihydropyridine-2-carbonitrile] | – | – | < 6.00 | < 5.00 |
| Cn1c(C(F)(F)F)ccc(NCc2cc3cc(Cl)ccc3[nH]c2=O)c1=O [Compound I-9, 6-chloro-3-({[1-methyl-2-oxo-6-(trifluoromethyl)-1,2-dihydropyridin-3-yl]amino}methyl)-1,2-dihydroquinolin-2-one] | – | – | 6.00 to 7.00 | < 5.00 |
| COc1cc2[nH]c(=O)c([C@H](C)Nc3ccc(C#N)n(C)c3=O)cc2cc1Cl [Compound I-20, 5-{[(1S)-1-(6-chloro-7-methoxy-2-oxo-1,2-dihydroquinolin-3-yl)ethyl]amino}-1-methyl-6-oxo-1,6-dihydropyridine-2-carbonitrile] | > 8.00 | 7.00 to 8.00 | – | – |
| C[C@H](Nc1ccc(C#N)n(C)c1=O)c1cc2cc(Cl)c(F)cc2[nH]c1=O [Compound I-16, 5-{[(1S)-1-(6-chloro-7-fluoro-2-oxo-1,2-dihydroquinolin-3-yl)ethyl]amino}-1-methyl-6-oxo-1,6-dihydropyridine-2-carbonitrile] | 7.00 to 8.00 | 6.00 to 7.00 | 7.00 to 8.00 | 6.00 to 7.00 |
| C[C@H](Nc1ccc(C#N)[nH]c1=O)c1cc2cc(Cl)ccc2[nH]c1=O [Compound I-14, 5-{[(1S)-1-(6-chloro-2-oxo-1,2-dihydroquinolin-3-yl)ethyl]amino}-6-oxo-1,6-dihydropyridine-2-carbonitrile] | 7.00 to 8.00 | 6.00 to 7.00 | 7.00 to 8.00 | 6.00 to 7.00 |
| C[C@H](Nc1ccc(C#N)n(C)c1=O)c1cc2cc(Cl)c(O[C@H](C)c3ccccn3)cc2[nH]c1=O [Compound I-26, 5-(((S)-1-(6-chloro-2-oxo-7-((R)-1-(pyridin-2-yl)ethoxy)-1,2-dihydroquinolin-3-yl)ethyl)amino)-1-methyl-6-oxo-1,6-dihydropyridine-2-carbonitrile] | > 8.00 | > 8.00 | – | – |
| N#Cc1ccc(NCc2cc3cc(Cl)ccc3[nH]c2=O)c(=O)[nH]1 [Compound I-4, 5-{[(6-chloro-2-oxo-1,2-dihydroquinolin-3-yl)methyl]amino}-6-oxo-1,6-dihydropyridine-2-carbonitrile] | – | – | 7.00 to 8.00 | 6.00 to 7.00 |
| CC(Nc1ccc(C#N)n(C)c1=O)c1cc2cc(Cl)c(OCC3CC(F)(F)C3)cc2[nH]c1=O (centres unmarked) [Compound I-28, 5-[(1-{6-chloro-7-[(3,3-difluorocyclobutyl)methoxy]-2-oxo-1,2-dihydroquinolin-3-yl}ethyl)amino]-1-methyl-6-oxo-1,6-dihydropyridine-2-carbonitrile] | 7.00 to 8.00 | 7.00 to 8.00 | 7.00 to 8.00 | – |
